Measurements as given in patent publication US6495152B2, “Sulfur containing polyhydroxyalkanoate compositions and method of production” (Tepha, Inc., priority 2000, dated 2002).

Tests used:
R. eutropha = test: Growth experiments in mineral salts medium with sulfur-containing carbon sources; type: cell-based, R. eutropha H16; conditions: for Use as sole carbon source for growth: R. eutropha strain H16
Protocol: (§1) Bacterial strains and culture conditions. R. eutropha H16 (DSM 428) and R. eutropha PHB^−4 (DSM 541) were cultivated in nutrient broth (NB) growth medium or in mineral salts medium (MSM) (Schlegel et al., (1961) Arch. Mikrobiol. 38, 209-222) at 30° C. in Erlenmeyer flasks under aerobic conditions on a rotary shaker with 130 strokes/min. In order to promote PHA accumulation, the ammonia concentration was reduced to 0.05% (w/v). Carbon sources were added from filter-sterilized 20% (w/v) stock solutions at the concentrations indicated in the text.
as §1, with “PHB-4” for “PHB^−4”, “(Schlegel, 1961, supra)” for “(Schlegel et al., (1961) Arch. Mikrobiol. 38, 209-222)”, “filter-sterilized” for “filter-sterilized 20% (w/v)”

P. putida = test: Growth on MSM agar plates containing ATAs as sole carbon sources; type: cell-based, Pseudomonas putida KT2440; parameters: key to Growth on MSM agar plates: +: growth; ++: good growth; −: no growth; *: thiol odor detected; conditions: sole carbon source; for Growth on MSM agar plates: P. putida
From the text: (§2) Bacterial strains and culture conditions. The PHA-negative mutant R. eutropha PHB^−4 (DSM 541) and a recombinant strain of R. eutropha PHB^−4 harbouring plasmid pBBR1::phaC1 expressing the PHA synthase 1 of Pseudomonas mendocina, as well as Pseudomonas putida KT2440 (Worsey & Williams, “Metabolism of toluene and xylenes by Pseudomonas putida (arvilla) mt-2: evidence for a new function of the TOL plasmid” in J Bacteriol 124:7-13 (1975)), P. aeruginosa PAO1 (ATCC 15692), P. oleovorans (ATCC 29347), and P. mendocina (DSM 50017) were used. Cultivations were performed in nutrient broth (NB) medium or mineral salts medium (MSM) according to Schlegel (1961), supra, to which different alkylthioalkanoic acids were added as carbon sources from filter-sterilized 10% (w/v) stock solutions at the concentrations indicated in the text. Fed batch cultivations were carried out under aerobic conditions at 30° C. in 2 l Erlenmeyer flasks containing 500 ml of medium which were agitated at 130 r.p.m. In order to promote PHA accumulation, the ammonia concentration was reduced to 0.05% (w/v) in MSM.
(§3) Growth and PHA accumulation of bacteria on alkylthioalkanoic acids. To evaluate the capabilities of various pseudomonades to use alkylthioalkanoic acids (ATAs) as carbon and energy sources for the synthesis of sulfur containing PHAs, growth experiments were carried out employing MSM agar plates which contained propylthioundecanoic acid (PTUD), propylthiooctanoic acid (PTO), octylthiohexanoic acid (OTHx), butylthiovaleric acid (BTV), or propylthiopropionic acid (PTP) as carbon sources.

P. mendocina = test: as above; type: cell-based, Pseudomonas mendocina; parameters: key: +: growth; ++: good growth; −: no growth; *: thiol odor detected; conditions: sole carbon source
From the text: as §2, §3

P. aeruginosa = test: as above; type: cell-based, Pseudomonas aeruginosa PAO1; parameters: key: +: growth; ++: good growth; −: no growth; *: thiol odor detected; conditions: sole carbon source
From the text: as §2, §3

P. oleovorans = test: as above; type: cell-based, Pseudomonas oleovorans; parameters: key: +: growth; ++: good growth; −: no growth; *: thiol odor detected; conditions: sole carbon source
From the text: as §2, §3

Pseudomonas strains = test: Growth experiments of pseudomonades on alkylthioalkanoic acids; type: cell-based; conditions: for Use as sole carbon source for growth: all Pseudomonas strains investigated; for Concentration above which cell growth was impaired: pseudomonades
From the text: as §2, §3

[1] = tested on: R. eutropha PHB-4 harboring pBBR1::phaC1; test: Growth in MSM containing PTO as the sole carbon source; type: cell-based
From the text: as §2
Since growth of R. eutropha PHB-4 harboring pBBR1::phaC1 in MSM containing PTO as the sole carbon source was very poor, cultivations were carried out in complex medium (NB) or in MSM containing sodium gluconate as second utilizable carbon source in addition to PTO. […]

CC(S)CC(=O)O (stereo not shown) [3-mercaptobutyric acid]
Use as sole carbon source for growth (R. eutropha): not able to use

O=C(O)CCS [3-mercaptopropionic acid]
Use as sole carbon source for growth (R. eutropha): not able to use
Concentration in the medium above which growth was impaired (R. eutropha; mineral salts medium plus readily utilized carbon source such as gluconic acid, R. eutropha and other bacteria): higher than 0.1 % (w/v)

CCCCSCCCCC(=O)O [BTV]
Growth on MSM agar plates (P. putida; 0.3% (w/v)): +*
Growth on MSM agar plates (P. mendocina; 0.3% (w/v)): +*
Growth on MSM agar plates (P. aeruginosa; 0.3% (w/v)): +*
Growth on MSM agar plates (P. oleovorans; 0.3% (w/v)): +*
Use as sole carbon source for growth (Pseudomonas strains): able to use
Concentration above which cell growth was impaired (Pseudomonas strains): > 0.4 % (w/v)

O=C(O)CCSCCC(=O)O [TDP, 3,3′-thiodipropionic acid]
Use as sole carbon source for growth (R. eutropha): not able to use
Concentration up to which no toxic effects on growth were exerted (R. eutropha; mineral salts medium plus readily utilized carbon source such as gluconic acid): ≤ 1.5 % (w/v)

octylthiohexanoic acid [OTHx]
Growth on MSM agar plates (P. putida; 0.6% (w/v)): ++
Growth on MSM agar plates (P. mendocina; 0.6% (w/v)): ++
Growth on MSM agar plates (P. aeruginosa; 0.6% (w/v)): ++
Growth on MSM agar plates (P. oleovorans; 0.6% (w/v)): ++
Use as sole carbon source for growth (Pseudomonas strains): able to use

propylthiooctanoic acid [PTO]
Growth on MSM agar plates (P. putida; 0.4% (w/v)): +
Growth on MSM agar plates (P. mendocina; 0.4% (w/v)): ++
Growth on MSM agar plates (P. aeruginosa; 0.4% (w/v)): +
Growth on MSM agar plates (P. oleovorans; 0.4% (w/v)): +
Use as sole carbon source for growth (Pseudomonas strains): able to use
Concentration above which cell growth was impaired (Pseudomonas strains): higher than 0.8 % (w/v)
Growth with the substance as the sole carbon source [1]: very poor

propylthiopropionic acid [PTP]
Growth on MSM agar plates (P. putida; 0.2% (w/v)): −
Growth on MSM agar plates (P. mendocina; 0.2% (w/v)): −
Growth on MSM agar plates (P. aeruginosa; 0.2% (w/v)): −
Growth on MSM agar plates (P. oleovorans; 0.2% (w/v)): −
Use as sole carbon source for growth (Pseudomonas strains): not used by any bacterium for growth

propylthioundecanoic acid [PTUD]
Growth in comparison to other pseudomonades (P. putida; P. putida KT2440): significantly lower
Growth on MSM agar plates (P. putida; 0.4% (w/v)): +*
Growth on MSM agar plates (P. mendocina; 0.4% (w/v)): ++*
Growth on MSM agar plates (P. aeruginosa; 0.4% (w/v)): ++*
Growth on MSM agar plates (P. oleovorans; 0.4% (w/v)): ++*
Use as sole carbon source for growth (Pseudomonas strains): able to use
